Patent US20040034219A1, “Benzothiophene derivative compounds process of preparation and use thereof” (priority 2000, published 2004)
Structures can show the parent of a compound that is named as a salt.

Tests used:
5-HT1A receptors = target: T1, 5-HT1A receptors (Rattus norvegicus, UniProt P19327); assay: Tests for fixing to serotonin 5HT1A receptors, 3H-DPAT displacement; assay type: binding; conditions: membranes of rat cerebral cortex, 3H-DPAT 1 nM, 15 minutes at 37° C.
T1 construct: fraction of membranes isolated from the cerebral cortex of rats; from tissue; host or cells: rat cerebral (frontal) cortex membranes
T1 sequence (P19327 1-422): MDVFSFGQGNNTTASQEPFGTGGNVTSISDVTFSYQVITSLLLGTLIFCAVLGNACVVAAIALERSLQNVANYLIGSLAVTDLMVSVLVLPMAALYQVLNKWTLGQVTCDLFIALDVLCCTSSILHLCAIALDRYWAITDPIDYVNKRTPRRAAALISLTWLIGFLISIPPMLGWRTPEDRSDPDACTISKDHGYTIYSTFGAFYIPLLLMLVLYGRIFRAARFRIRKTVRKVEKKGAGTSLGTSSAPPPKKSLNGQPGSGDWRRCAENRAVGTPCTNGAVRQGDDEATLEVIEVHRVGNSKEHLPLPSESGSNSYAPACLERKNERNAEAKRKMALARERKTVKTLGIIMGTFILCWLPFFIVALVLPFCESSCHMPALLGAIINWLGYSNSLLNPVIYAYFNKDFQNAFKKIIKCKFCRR
Method: Tests for Fixing to Serotonin 5HT1A Receptors
The technique described by Hoyer and collaborators (Eur. J. Pharmacol. 118:13-23.1985) was used to determine the affinity of the products for the 5-HT1A receptors. The studies were carried out with the fraction of membranes isolated from the cerebral cortex of rats. The agonist ^3H-Dipropylaminotetraline (DPAT) was used as specific ligand, while non-radioactive DPAT was used as displacing ligand.
In order to isolate the fraction of membranes, the frontal cortex of the rat was dissected and homogenised in Tris-HCl 50 mM, pH 7.7 at 4° C. The resulting homogenate was centrifuged at 25000 rpm for 15 minutes at 4° C. and the sediment resuspended in Tris-HCl containing CaCl2 4 mM. For the fixing test the suspension of membranes was incubated with ^3H-DPAT (1 nM) and different concentrations of the cold displacing agent. Once the incubation period of 15 minutes at 37° C. had elapsed, the membrane fraction was separated by means of rapid filtration and the radioactivity of the combined fraction quantified by means of liquid scintillation.
(§1) The results are expressed as the Ki of the serotonin transporter and the Ki of the 5-HT1A receptor.

serotonin transporter = target: T2, serotonin transporter (Rattus norvegicus, UniProt P31652); assay: Tests of fixing to the serotonin transporter (5-HT), 3H-paroxetine displacement; assay type: binding; conditions: membranes of rat cerebral cortex, 3H-paroxetine 0.1 nM, 60 minutes at 22° C.
T2 construct: a fraction of semi-purified membranes of the cerebral cortex of rat; from tissue; host or cells: rat cerebral cortex membranes
T2 sequence (P31652 whole entry): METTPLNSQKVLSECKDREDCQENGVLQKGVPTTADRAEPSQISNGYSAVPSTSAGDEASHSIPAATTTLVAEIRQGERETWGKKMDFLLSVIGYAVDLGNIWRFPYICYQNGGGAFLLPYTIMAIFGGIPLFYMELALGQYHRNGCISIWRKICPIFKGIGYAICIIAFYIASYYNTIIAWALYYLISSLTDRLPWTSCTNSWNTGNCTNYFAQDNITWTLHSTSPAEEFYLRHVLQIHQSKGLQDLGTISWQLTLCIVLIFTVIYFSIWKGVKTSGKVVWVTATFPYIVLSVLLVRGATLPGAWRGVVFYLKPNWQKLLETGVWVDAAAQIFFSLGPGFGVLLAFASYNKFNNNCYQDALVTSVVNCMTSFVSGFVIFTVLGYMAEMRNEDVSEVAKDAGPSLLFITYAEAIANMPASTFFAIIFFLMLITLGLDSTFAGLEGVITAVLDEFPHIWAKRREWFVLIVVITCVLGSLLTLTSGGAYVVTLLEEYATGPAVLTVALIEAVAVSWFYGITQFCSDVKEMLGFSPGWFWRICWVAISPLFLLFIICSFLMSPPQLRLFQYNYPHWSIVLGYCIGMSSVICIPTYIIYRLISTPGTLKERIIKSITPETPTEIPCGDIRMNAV
Method: Tests of Fixing to the Serotonin Transporter (5-HT)
The biological material used was a fraction of semi-purified membranes of the cerebral cortex of rat, obtained using the method described above.
The membrane fraction was resuspended in Tris-HCl 50 mM, pH 7.4 at 40° C., which contained NaCl 120 mM and KCl 5 mM, and was incubated with ^3H-paroxetine 0.1 nM and different concentrations of fluoxetine as displacing agent. At the end of the period of incubation of 60 minutes at 22° C. the membrane fraction was separated by rapid filtration and the radioactivity of the combined fraction quantified by means of liquid scintillation.
as §1

Ki (5-HT1A receptors) | Ki (serotonin transporter) | melting point | Structure (SMILES)
5.9 nM | 7.3 nM | 170 to 173 °C | OC(CCN1CCN(c2cccc3[nH]ccc23)CC1)c1csc2ccc(F)cc12 (stereo not drawn) [Example 29, 1-(5-fluorobenzo[b]thiophen-3-yl)-3-[4-(indol-4-yl)piperazina-1-yl]propan-1-ol]
377 nM | 6.4 nM | – | OC(CCN1CCN(c2ccc3ccccc3n2)CC1)c1csc2ccccc12 (stereo not drawn) [Example 44, 1-(benzo [b]thiophen-3-yl) -3-[4-(quinol-2-yl)piperazin-1-yl]propan-1-ol]
2.5 nM | 8.5 nM | – | Cc1ccc2cccc(N3CCN(CCC(O)c4csc5ccc(F)cc45)CC3)c2n1 (stereo not drawn) [Example 30, 1-(5-fluorobenzo[b]thiophen-3-yl)-3-[4-(quinaldin-8-yl)piperazin-1-yl]propan-1-ol]
– | – | 92 to 96 °C | O=C(CCN1CCN(c2ccc3ccccc3n2)CC1)c1csc2ccccc12 [Example 14, 1-(benzo[b]thiophen-3-yl)-3-[4-(quinol-2-yl)piperazin-1-yl]propan-1-one]
– | – | 83 to 85 °C | O=C(CCN1CCN(c2cccc3[nH]ccc23)CC1)c1csc2ccccc12 [Example 10, 1-(benzo[b]thiophen-3-yl)-3-[4-(indol-4-yl)piperazin-1-yl]propan-1-one]
26.1 nM | 12.7 nM | 127 to 129 °C | OC(CCN1CCN(c2cccc3ncccc23)CC1)c1csc2ccccc12 (stereo not drawn) [Example 37, 1-(benzo[b]thiophen-3-yl)-3-[4-(quinol-5-yl)piperazin-1-yl]propan-1-ol]
3.2 nM | 15.9 nM | – | O=C(CCN1CCN(c2cccc3c2OCCO3)CC1)c1csc2ccc([N+](=O)[O-])cc12 [Example 21, 1-(5-nitrobenzo[b]thiophen-3-yl)-3-[4-(2,3-dihydro-1,4-benzodioxyn-5-yl)piperazin-1-yl]propan-1-one]
– | – | 112 to 114 °C | O=C(CCN1CCN(c2cnc3ccccc3c2)CC1)c1csc2ccccc12 [Example 16, 1-(benzo [b]thiophen-3-yl) -3-[4-(quinol-3-yl)piperazin-1-yl]propan-1-one]
10.2 nM | 9.9 nM | – | Cc1ccc2cccc(N3CCN(CCC(O)c4csc5ccccc45)CC3)c2n1 (stereo not drawn) [Example 36, 1-(benzo[b]thiophen-3-yl)-3-[4-(quinaldin-8-yl)piperazin-1-yl]propan-1-ol hydrochloride]
– | – | 134 to 136 °C | O=C(CCN1CCN(c2ccnc3ccccc23)CC1)c1csc2ccccc12 [Example 15, 1-(benzo[b]thiophen-3-yl) -3-[4-(quinol-4-yl)piperazin-1-yl]propan-1-one]
– | – | 150 to 152 °C | Cl.Cl.O=C(CCN1CCN(c2cccc3cccnc23)CC1)c1csc2ccccc12
546 nM | 2.2 nM | – | OC(CCN1CCN(c2ccc3ncccc3c2)CC1)c1csc2ccccc12 (stereo not drawn) [Example 47, 1-(benzo[b]thiophen-3-yl)-3-[4-(quinol-6-yl)piperazin-1-yl]propan-1-ol]
1.5 nM | 8.6 nM | 169 to 170 °C | Cl.OC(CCN1CCN(c2cccc3cccnc23)CC1)c1csc2ccccc12 (stereo not drawn) [Example 33, 1-(benzo[b]thiophen-3-yl)-3-[4-(quinol-8-yl)piperazin-1-yl]propan-1-ol hydrochloride]
14 nM | 6.9 nM | – | O=[N+]([O-])c1ccc2scc(C(O)CCN3CCN(c4cccc5c4OCCO5)CC3)c2c1 (stereo not drawn) [Example 39, 1-(5-nitrobenzo[b]thiophen-3-yl)-3-[14-(2,3-dihydro-1,4-benzodioxyn-5-yl)piperazin-1-yl]propan-1-ol]
18.2 nM | 6.2 nM | – | Oc1ccc2scc(C(O)CCN3CCN(c4cccc5c4OCCO5)CC3)c2c1 (stereo not drawn) [Example 50, 1-(5-hydroxybenzo[b]thiophen-3-yl)-3-[4-(2,3-dihydro-1,4-benzodioxyn-5-yl)piperazin-1-yl]propan-1-ol]

Structure (SMILES) | Ki (5-HT1A receptors) | Ki (serotonin transporter) | melting point
OC(CCN1CCN(c2cccc3c2OCCO3)CC1)c1csc2ccc(F)cc12 (stereo not drawn) [Example 28, 1-(5-fluorobenzo[b]thiophen-3-yl)-3-[4-(2,3-dihydro-1,4-benzodioxyn-5-yl)piperazin-1-yl]propan-1-ol] | 6 nM | 14.9 nM | 147 to 150 °C
Cl.OC(CCN1CCN(c2cccc3[nH]ccc23)CC1)c1csc2ccccc12 (stereo not drawn) [Example 35, 1-(benzo[b]thiophen-3-yl)-3-[4-(indol-4-yl)piperazin-1-yl]propan-1-ol hydrochloride] | 5.5 nM | 4.1 nM | > 300 °C
OC(CCN1CCN(c2ccnc3ccccc23)CC1)c1csc2ccccc12 (stereo not drawn) [Example 45, 1-(benzo[b]thiophen-3-yl)-3-[4-(quinol-4-yl)piperazin-1-yl]propan-1-ol hydrochloride] | 301 nM | 19.4 nM | –
OC(CCN1CCN(c2cccc3cccnc23)CC1)c1csc2ccc(F)cc12 (stereo not drawn) [Example 27, 1-(5-fluorobenzo[b]thiophen-3-yl)-3-[4-(quinol-8-yl)piperazin-1-yl]propan-1-ol] | 2.7 nM | 7.5 nM | 89 to 91 °C
